Patent publication US20230031406A1, “COMPOUNDS AND COMPOSITIONS FOR TREATING CONDITIONS ASSOCIATED WITH NLRP ACTIVITY” (Novartis AG, priority 2018, published 2023)

tested on: PMA-differentiated THP-1 cells; test: IL-1β production in PMA-differentiated THP-1 cells stimulated with gramicidin (hTHP-1 assay containing 2% fetal bovine serum; Procedures 1 and 2); assay type: cell-based, human; conditions: Homo sapiens, THP-1, Table B1; 2% fetal bovine serum; class symbols; read-out: Average IC50 of compounds in hTHP-1 assay: hTHP-1 IC50
Method in brief: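 THP-1 cells were differentiated with PMA (20 ng/ml, 16-18 h), detached, and plated at 50,000 cells/well in RPMI 1640 with 2% FBS. They were pre-treated with compound (0.0017–100 μM, 0.37% DMSO) for 1 h, then stimulated with gramicidin (5 μM) for 2 h. Supernatant IL-1β was measured by HTRF.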

Row | Compound | IC50 [nM]
1 | CC(C)(O)c1cc(F)c(S(N)(=O)=NC(=O)Nc2c3c(nc4c2CCC42CC2)CCC3)s1 (centres unmarked) [Compound 101, 3-fluoro-5-(2-hydroxypropan-2-yl)-N′-((1′,5′,6′,7′-tetrahydro-2′H-spiro[cyclopropane-1,3′-dicyclopenta[b,e]pyridin]-8′-yl)carbamoyl)thiophene-2-sulfonimidamide] | 40 to 200
2 | CC(C)(O)c1cc(F)c(S(N)(=O)=NC(=O)Nc2c3c(nc4c2CCC4(C)C)CCC3)s1 (centres unmarked) [Compound 102, N′-((3,3-dimethyl-1,2,3,5,6,7-hexahydrodicyclopenta[b,e]pyridin-8-yl)carbamoyl)-3-fluoro-5-(2-hydroxypropan-2-yl)thiophene-2-sulfonimidamide] | 40 to 200
3 | CC(C)(O)c1cc(F)c(S(N)(=O)=NC(=O)Nc2c3c(nc4c2CCC4)CCC3)s1 (centres unmarked) [Compound 105, 3-fluoro-N′-((1,2,3,5,6,7-hexahydrodicyclopenta[b,e]pyridin-8-yl)carbamoyl)-5-(2-hydroxypropan-2-yl)thiophene-2-sulfonimidamide] | 40 to 200
4 | CC(C)c1ncc(F)c(C(C)C)c1NC(=O)N=S(N)(=O)c1sc(C(C)(C)O)cc1F (centres unmarked) [Compound 106, 3-Fluoro-N′-((5-fluoro-2,4-diisopropylpyridin-3-yl)carbamoyl)-5-(2-hydroxypropan-2-yl)thiophene-2-sulfonimidamide] | 40 to 200
5 | Cc1sc(S(N)(=O)=NC(=O)Nc2c3c(nc4c2CCC4)CCC3)cc1C(C)(C)O (centres unmarked) [Compound 107, N′-((1,2,3,5,6,7-hexahydrodicyclopenta[b,e]pyridin-8-yl)carbamoyl)-4-(2-hydroxypropan-2-yl)-5-methylthiophene-2-sulfonimidamide] | 200 to 1000
6 | CC(C)c1ccnc(C(C)C)c1NC(=O)N=S(N)(=O)c1cnc(C(C)(C)O)s1 (centres unmarked) [Compound 110, N′-((2,4-diisopropylpyridin-3-yl)carbamoyl)-2-(2-hydroxypropan-2-yl)thiazole-5-sulfonimidamide] | 5000 to 30000

same assay, conditions: Homo sapiens, THP-1, Table B1; 2% fetal bovine serum; numeric bounds; read-out: Average IC50 of compounds in hTHP-1 assay: hTHP-1 IC50

Row | Compound | IC50 [nM]
7 | CC(C)(O)c1ncc(S(N)(=O)=NC(=O)Nc2nc3ccccc3c3c2CCC3)s1 (centres unmarked) [Compound 111, N′-((2,3-dihydro-1H-cyclopenta[c]quinolin-4-yl)carbamoyl)-2-(2-hydroxypropan-2-yl)thiazole-5-sulfonimidamide] | > 30000
8 | CCCc1cc(NC(=O)N=S(N)(=O)c2cnc(C(C)(C)O)s2)c2c(n1)CCC2 (centres unmarked) [Compound 112, 2-(2-hydroxypropan-2-yl)-N′-((2-propyl-6,7-dihydro-5H-cyclopenta[b]pyridin-4-yl)carbamoyl)thiazole-5-sulfonimidamide] | > 30000

same assay, conditions: Homo sapiens, THP-1, Table B4; 2% fetal bovine serum; class symbols; read-out: hTHP-1 IC50

Row | Compound | IC50 [nM]
9 | C[C@@H]1CCc2c1nc1c(c2NC(=O)N=S(N)(=O)c2nn(-c3ccccc3)cc2F)CCC1 (single isomer, unassigned) [Example 791, (R) or (S)-4-fluoro-N′-(((R)-3-methyl-1,2,3,5,6,7-hexahydrodicyclopenta[b,e]pyridin-8-yl)carbamoyl)-1-phenyl-1H-pyrazole-3-sulfonimidamide] | 200 to 1000

same assay, conditions: Homo sapiens, THP-1, Table B4; 2% fetal bovine serum; numeric bounds; read-out: hTHP-1 IC50

Row | Compound | IC50 [nM]
10 | C[C@@H]1CCc2c1nc1c(c2NC(=O)N=S(N)(=O)c2nn(-c3ccccc3)cc2F)CCC1 (single isomer, unassigned) [Example 792, (S) or (R)-4-fluoro-N′-(((R)-3-methyl-1,2,3,5,6,7-hexahydrodicyclopenta[b,e]pyridm-8-yl)carbamoyl)-1-phenyl-1H-pyrazole-3-sulfonimidamide] | > 30000

same assay, conditions: Table B1; 2% fetal bovine serum; class symbols; read-out: Average IC50 of compounds in hTHP-1 assay: hTHP-1 IC50

Row | Compound | IC50 [nM]
11 | CC1CCc2c1nc1c(c2NC(=O)N=S(N)(=O)c2cc(C(C)(C)O)cs2)CCC1C (centres unmarked) [131f^] | 1000 to 5000
12 | CC1CCc2c1nc1c(c2NC(=O)N=S(N)(=O)c2sc(C(C)(C)O)cc2F)CCC1 (centres unmarked) [Compound 103, 3-fluoro-5-(2-hydroxypropan-2-yl)-N′-((3-methyl-1,2,3,5,6,7-hexahydrodicyclopenta[b,e]pyridin-8-yl)carbamoyl)thiophene-2-sulfonimidamide] | 40 to 200
13 | Cc1sc(S(N)(=O)=NC(=O)Nc2c3c(nc4c2CCC4C)CCC3)nc1C(C)(C)O (centres unmarked) [Compound 104, 4-(2-Hydroxypropan-2-yl)-5-methyl-N′-((3-methyl-1,2,3,5,6,7-hexahydrodicyclopenta[b,e]pyridin-8-yl)carbamoyl)thiazole-2-sulfonimidamide] | 200 to 1000

same assay, conditions: Table B4; 2% fetal bovine serum; class symbols; read-out: hTHP-1 IC50

Row | Compound | IC50 [nM]
14 | CCn1cc(F)c(S(N)(=O)=NC(=O)Nc2c3c(nc(C(F)(F)F)c2-c2ccccc2F)CCC3)n1 (single isomer, unassigned) [Example 780, (S) or (R)-1-ethyl-4-fluoro-N′-((3-(2-fluorophenyl)-2-(trifluoromethyl)-6,7-dihydro-5H-cyclopenta[b]pyridin-4-yl)carbamoyl)-1H-pyrazole-3-sulfonimidamide] | 200 to 1000
15 | CCn1cc(F)c(S(N)(=O)=NC(=O)Nc2c3c(nc(C(F)(F)F)c2-c2cccc(F)c2)CCC3)n1 (single isomer, unassigned) [Example 781, (R) or (S)-1-ethyl-4-fluoro-N′-((3-(3-fluorophenyl)-2-(trifluoromethyl)-6,7-dihydro-5H-cyclopenta[b]pyridin-4-yl)carbamoyl)-1H-pyrazole-3-sulfonimidamide] | 8 to 40
16 | CCn1cc(F)c(S(N)(=O)=NC(=O)Nc2c3c(nc(C(F)(F)F)c2-c2cccc(F)c2)CCC3)n1 (single isomer, unassigned) [Example 782, (S) or (R)-1-ethyl-4-fluoro-N′-((3-(3-fluorophenyl)-2-(trifluoromethyl)-6,7-dihydro-5H-cyclopenta[b]pyridin-4-yl)carbamoyl)-1H-pyrazole-3-sulfonimidamide] | 200 to 1000
17 | Cc1c(C(F)(F)F)nc2c(c1NC(=O)N=S(N)(=O)c1nn(-c3ccccc3)cc1F)CCC2 (single isomer, unassigned) [Example 783, (R) or (S)-4-fluoro-N′-((3-methyl-2-(trifluoromethyl)-6,7-dihydro-5H-cyclopenta [b]pyridin-4-yl)carbamoyl)-1-phenyl-1H-pyrazole-3-sulfonimidamide] | 1000 to 5000
18 | Cc1c(C(F)(F)F)nc2c(c1NC(=O)N=S(N)(=O)c1nn(-c3ccccc3)cc1F)CCC2 (single isomer, unassigned) [Example 784, (S) or (R)-4-fluoro-N′-((3-methyl-2-(trifluoromethyl)-6,7-dihydro-5H-cyclopenta [b]pyridin-4-yl)carbamoyl)-1-phenyl-1H-pyrazole-3-sulfonimidamide] | 5000 to 30000
19 | CC(C)n1cc(F)c(S(N)(=O)=NC(=O)Nc2c3c(nc4c2CCC4)CCC3)n1 (single isomer, unassigned) [Example 785, (R) or (S)-4-fluoro-N′-((1,2,3,5,6,7-hexahydrodicyclopenta [b,e]pyridin-8-yl)carbamoyl)-1-isopropyl-1H-pyrazole-3-sulfonimidamide] | 40 to 200
20 | CC(C)n1cc(F)c(S(N)(=O)=NC(=O)Nc2c3c(nc4c2CCC4)CCC3)n1 (single isomer, unassigned) [Example 786, (S) or (R)-4-fluoro-N′-((1,2,3,5,6,7-hexahydrodicyclopenta [b,e]pyridin-8-yl)carbamoyl)-1-isopropyl-1H-pyrazole-3-sulfonimidamide] | 5000 to 30000
21 | CCn1cc(F)c(S(N)(=O)=NC(=O)Nc2c3c(nc(C(F)(F)F)c2-c2ccc(F)cc2)CCC3)n1 (single isomer, unassigned) [Example 787, (R) or (S)-1-ethyl-4-fluoro-N′-((3-(4-fluorophenyl)-2-(trifluoromethyl)-6,7-dihydro-5H-cyclopenta[b]pyridin-4-yl)carbamoyl)-1H-pyrazole-3-sulfonimidamide] | 8 to 40
22 | CCn1cc(F)c(S(N)(=O)=NC(=O)Nc2c3c(nc(C(F)(F)F)c2-c2ccc(F)cc2)CCC3)n1 (single isomer, unassigned) [Example 788, (S) or (R)-1-ethyl-4-fluoro-N′-((3-(4-fluorophenyl)-2-(trifluoromethyl)-6,7-dihydro-5H-cyclopenta[b]pyridin-4-yl)carbamoyl)-1H-pyrazole-3-sulfonimidamide] | 1000 to 5000
23 | Cc1c(C(F)(F)F)nc2c(c1NC(=O)N=S(N)(=O)c1nn(C(C)C)cc1F)CCC2 (single isomer, unassigned) [Example 789, (R) or (S)-4-fluoro-1-isopropyl-N′-((3-methyl-2-(trifluoromethyl)-6,7-dihydro-5H-cyclopenta[b]pyridin-4-yl)carbamoyl)-1H-pyrazole-3-sulfonimidamide] | 40 to 200
24 | Cc1c(C(F)(F)F)nc2c(c1NC(=O)N=S(N)(=O)c1nn(C(C)C)cc1F)CCC2 (single isomer, unassigned) [Example 790, (S) or (R)-4-fluoro-1-isopropyl-N′-((3-methyl-2-(trifluoromethyl)-6,7-dihydro-5H-cyclo-penta [b]pyridin-4-yl)carbamoyl)-1H-pyrazole-3-sulfonimidamide] | 5000 to 30000
25 | CCn1cc(F)c(S(N)(=O)=NC(=O)Nc2c(-c3ccccc3)cnc3c2CCC3)n1 (single isomer, unassigned) [Example 793, (R) or (S)-1-ethyl-4-fluoro-N′-((3-phenyl-6,7-dihydro-5H-cyclopenta[b]pyridin-4-yl)carbamoyl)-1H-pyrazole-3-sulfonimidamide] | 200 to 1000
26 | CCn1cc(F)c(S(N)(=O)=NC(=O)Nc2c(-c3ccccc3)cnc3c2CCC3)n1 (single isomer, unassigned) [Example 794, (S) or (R)-1-ethyl-4-fluoro-N′-((3-phenyl-6,7-dihydro-5H-cyclopenta[b]pyridin-4-yl)carbamoyl)-1H-pyrazole-3-sulfonimidamide] | 5000 to 30000
